In ChEMBL document CHEMBL1201862, “PubChem BioAssay data set” (2004) one finds IC50, AC50 and EC50 data, which are given here for 5 compounds.

Experiment [1] has as its target T1, Methionyl-tRNA synthetase, putative (Trypanosoma brucei brucei, UniProt Q38C91).
T1 sequence (Q38C91 whole entry): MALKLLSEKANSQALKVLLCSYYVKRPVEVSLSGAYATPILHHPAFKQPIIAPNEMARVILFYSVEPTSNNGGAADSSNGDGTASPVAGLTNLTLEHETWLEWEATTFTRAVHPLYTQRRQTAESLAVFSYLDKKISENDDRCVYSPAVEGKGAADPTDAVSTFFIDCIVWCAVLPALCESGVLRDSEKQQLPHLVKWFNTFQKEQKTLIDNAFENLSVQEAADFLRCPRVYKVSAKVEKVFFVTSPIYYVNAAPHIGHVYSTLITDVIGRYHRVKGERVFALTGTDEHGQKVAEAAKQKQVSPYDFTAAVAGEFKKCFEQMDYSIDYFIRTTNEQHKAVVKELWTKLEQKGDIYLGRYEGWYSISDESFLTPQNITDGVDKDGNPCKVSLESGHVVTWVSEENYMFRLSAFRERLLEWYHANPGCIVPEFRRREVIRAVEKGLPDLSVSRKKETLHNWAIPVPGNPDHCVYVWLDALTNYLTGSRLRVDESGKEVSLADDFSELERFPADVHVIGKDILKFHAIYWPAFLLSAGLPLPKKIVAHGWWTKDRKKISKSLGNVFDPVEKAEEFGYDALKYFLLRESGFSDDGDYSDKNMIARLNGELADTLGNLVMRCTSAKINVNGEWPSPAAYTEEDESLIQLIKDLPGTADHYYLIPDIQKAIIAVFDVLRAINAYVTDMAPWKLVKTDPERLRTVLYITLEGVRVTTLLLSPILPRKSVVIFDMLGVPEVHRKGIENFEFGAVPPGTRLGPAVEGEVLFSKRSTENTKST
Format: functional, Trypanosoma brucei brucei strain 927/4 GUTat10.1.

Experiment [2] is described as follows: Counterscreen for inhibitors of Trypanosoma brucei methionyl tRNA synthetase (MetRS): Luminescence-based cell-based high throughput dose response assay to identify compounds that are cytotoxic to Jurkat human T lymphocyte cells. Format: functional.
Experiment [3] deals with T1, Methionyl-tRNA synthetase, putative. Format: functional, Trypanosoma brucei brucei strain 927/4 GUTat10.1. This is another data set of the same source.
The target of experiment [4] is COUP transcription factor 2 (Homo sapiens, UniProt P24468). In words: Luminescence-based cell-based high throughput dose response assay to identify inhibitors of COUP-TFII (NR2F2). Format: functional.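 Note: HEK293 cells transiently cotransfected with COUP-TFII expression vector and reporter; luciferase reporter luminescence driven by COUP-TFII from the pX2-168 reporter plasmid.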
Experiment [5] has as its target T2, Acyl-homoserine lactone acylase PvdQ (Pseudomonas aeruginosa (strain LESB58), UniProt Q9I194).
T2 sequence (Q9I194 whole entry): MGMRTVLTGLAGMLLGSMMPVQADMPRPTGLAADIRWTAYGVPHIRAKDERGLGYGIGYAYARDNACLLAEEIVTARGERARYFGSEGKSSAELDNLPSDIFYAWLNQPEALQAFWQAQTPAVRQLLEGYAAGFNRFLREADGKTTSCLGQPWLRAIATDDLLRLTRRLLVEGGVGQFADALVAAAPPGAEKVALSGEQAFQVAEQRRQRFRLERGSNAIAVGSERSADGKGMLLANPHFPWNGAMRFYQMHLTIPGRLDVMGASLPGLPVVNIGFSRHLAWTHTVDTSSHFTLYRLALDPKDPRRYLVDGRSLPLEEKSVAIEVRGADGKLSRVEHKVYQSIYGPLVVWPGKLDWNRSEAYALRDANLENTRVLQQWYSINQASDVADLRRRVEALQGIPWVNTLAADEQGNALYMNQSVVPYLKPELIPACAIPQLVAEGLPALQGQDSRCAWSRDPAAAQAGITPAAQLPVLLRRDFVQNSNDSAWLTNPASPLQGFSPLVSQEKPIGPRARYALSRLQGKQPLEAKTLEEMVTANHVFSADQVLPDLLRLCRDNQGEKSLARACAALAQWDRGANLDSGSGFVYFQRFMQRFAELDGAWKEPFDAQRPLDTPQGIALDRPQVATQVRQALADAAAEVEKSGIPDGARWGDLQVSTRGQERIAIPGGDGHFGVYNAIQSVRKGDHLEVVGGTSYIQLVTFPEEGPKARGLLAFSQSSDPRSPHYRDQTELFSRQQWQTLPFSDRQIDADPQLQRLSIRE
Kind of experiment: PvdQ acylase enzyme activity blockers – biochemical, fluorescence, plate reader and imaging, cherry-picks, dose response (AID 493231).

The nature of experiment [6]: HEK-293T viability loss after treatment – luminescence, T-cell screen hits, cytotoxicity control for TCR NF-kB inhibitor project, dose response (AID 489026).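 Note: cells exposed to compound about 14 hours before the viability readout.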 Format: functional, cell-based.
Experiment [7] in a line: A549 cell cytotoxicity, dose response, cytotoxicity control, plate reader, cherry-pick, antagonist series (AID 743412). Format: functional, cell-based.
Experiment [8] can be described thus: toxicity toward HepG2 liver cells – cell-based, plate reader, cherry-pick, antagonist series, cytotoxicity control, dose response (AID 743416). Format: functional.
Experiment [9] is described as follows: blockers of bursicon-stimulated LGR2 cAMP reporter – cell-based, HEK293, CRE-luciferase reporter, cherry pick, set 2, dose response (AID 743343).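 Note: transfected cells were stimulated with diluted bursicon conditioned medium after compound addition.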 Format: functional.
The nature of experiment [10]: blockade of melanocortin 4 receptor signaling – cell-based, plate reader, cherry pick, counter-screen for LGR2 antagonist project, dose response (AID 743444).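 Note: transfected HEK 293 cells stimulated with alpha-MSH peptide; potency of inhibitors of the alpha-MSH evoked signal.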 Format: functional.
A short description of experiment [11]: viability loss in HEK293 cells – cell-based, plate reader, cherry-picked samples, cytotoxicity control, dose response (AID 743446). Format: functional.
Experiment [12] relates to HEK293. Kind of experiment: inhibition of NOD1-driven NF-kB reporter – cell-based, luminescence, uHTS, primary screen (AID 1578). Format: functional. Conditions: Homo sapiens.
Experiment [13] relates to HEK293. In words: cells. Format: functional, cell-based. Conditions: Homo sapiens.
Experiment [14] has as its system HEK293. Kind of experiment: cells. Format: functional, cell-based. Conditions: Homo sapiens. The source holds these as a separate data set.
The target of experiment [15] is Nucleotide-binding oligomerization domain-containing protein 2 (Homo sapiens, UniProt Q9HC29). In words: inhibition of NOD2-driven NF-kB reporter – cell-based, luminescence, uHTS, HEK293 (AID 1566). Format: functional.
Experiment [16] has as its system HEK293. Kind of experiment: NOD2 signaling inhibitors in MDP-stimulated cells, cell-based, uHTS, luminescence (AID 2001). Format: functional. Particulars: Homo sapiens.
Experiment [17] has as its system HEK293. Kind of experiment: cells. Format: functional, cell-based. Conditions: Homo sapiens. The source holds these as a separate data set.
Experiment [18] addresses T3, Probable nicotinate-nucleotide adenylyltransferase (Staphylococcus aureus (strain N315), UniProt P65502). Format: functional, Staphylococcus aureus subsp. aureus N315.
Experiment [19] concerns the target T3, Probable nicotinate-nucleotide adenylyltransferase. Format: functional, Staphylococcus aureus subsp. aureus N315. Conditions: read-out: IC50_Mean.
Experiment [20] deals with T4, Sentrin-specific protease 8 (Homo sapiens, UniProt Q96LD8).
T4 sequence (Q96LD8 whole entry): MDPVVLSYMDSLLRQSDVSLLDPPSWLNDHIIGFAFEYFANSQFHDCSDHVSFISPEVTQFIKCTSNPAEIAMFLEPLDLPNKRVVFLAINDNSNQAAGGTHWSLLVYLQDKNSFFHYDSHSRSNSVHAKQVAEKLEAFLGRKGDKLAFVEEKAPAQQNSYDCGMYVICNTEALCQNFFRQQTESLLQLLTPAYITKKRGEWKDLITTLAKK
Format: functional.

The target of experiment [21] is T4, Sentrin-specific protease 8. Format: functional. This is another data set of the same source.

Active and inactive are the calls of the source. Bounds are passed on as bounds.
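Throughout, for IC50 Mean: confirmatory dose-response retesting of NadD inhibitor hits first found in an ultra-high-throughput screen.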

T3 sequence (P65502 whole entry): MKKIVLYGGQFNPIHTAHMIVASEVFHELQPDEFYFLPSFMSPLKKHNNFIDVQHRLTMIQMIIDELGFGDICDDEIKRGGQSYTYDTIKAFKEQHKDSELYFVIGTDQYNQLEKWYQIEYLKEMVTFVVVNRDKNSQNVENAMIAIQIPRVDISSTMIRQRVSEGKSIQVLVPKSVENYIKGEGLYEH
Nucleotide-binding oligomerization domain-containing protein 2, sequence (Q9HC29 whole entry, the tested form may be a part): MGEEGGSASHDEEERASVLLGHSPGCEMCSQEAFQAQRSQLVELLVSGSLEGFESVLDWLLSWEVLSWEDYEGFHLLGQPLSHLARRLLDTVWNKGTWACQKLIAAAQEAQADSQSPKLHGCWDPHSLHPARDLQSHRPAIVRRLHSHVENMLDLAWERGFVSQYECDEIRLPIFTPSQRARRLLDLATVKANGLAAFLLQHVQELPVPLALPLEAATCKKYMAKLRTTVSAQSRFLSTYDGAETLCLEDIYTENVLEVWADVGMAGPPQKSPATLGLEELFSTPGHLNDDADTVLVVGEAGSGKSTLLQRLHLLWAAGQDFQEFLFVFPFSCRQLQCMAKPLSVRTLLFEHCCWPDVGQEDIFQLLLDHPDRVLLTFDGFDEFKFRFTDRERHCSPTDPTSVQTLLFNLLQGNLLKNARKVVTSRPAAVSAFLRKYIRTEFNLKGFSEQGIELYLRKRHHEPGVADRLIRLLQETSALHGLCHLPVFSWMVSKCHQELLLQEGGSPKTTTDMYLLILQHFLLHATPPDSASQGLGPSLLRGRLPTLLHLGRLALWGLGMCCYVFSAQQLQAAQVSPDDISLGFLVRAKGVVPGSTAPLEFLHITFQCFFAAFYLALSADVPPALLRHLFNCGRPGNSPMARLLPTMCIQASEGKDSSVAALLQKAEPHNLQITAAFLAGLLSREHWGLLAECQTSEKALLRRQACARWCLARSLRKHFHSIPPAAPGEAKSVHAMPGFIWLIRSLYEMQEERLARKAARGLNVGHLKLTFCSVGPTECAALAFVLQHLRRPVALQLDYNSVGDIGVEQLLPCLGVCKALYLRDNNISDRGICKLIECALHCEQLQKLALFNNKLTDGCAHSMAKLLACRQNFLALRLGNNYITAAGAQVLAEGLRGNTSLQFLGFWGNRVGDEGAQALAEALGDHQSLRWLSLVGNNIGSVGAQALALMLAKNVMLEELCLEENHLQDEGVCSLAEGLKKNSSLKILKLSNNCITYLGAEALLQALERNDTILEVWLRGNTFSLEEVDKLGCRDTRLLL
COUP transcription factor 2, sequence (P24468 whole entry): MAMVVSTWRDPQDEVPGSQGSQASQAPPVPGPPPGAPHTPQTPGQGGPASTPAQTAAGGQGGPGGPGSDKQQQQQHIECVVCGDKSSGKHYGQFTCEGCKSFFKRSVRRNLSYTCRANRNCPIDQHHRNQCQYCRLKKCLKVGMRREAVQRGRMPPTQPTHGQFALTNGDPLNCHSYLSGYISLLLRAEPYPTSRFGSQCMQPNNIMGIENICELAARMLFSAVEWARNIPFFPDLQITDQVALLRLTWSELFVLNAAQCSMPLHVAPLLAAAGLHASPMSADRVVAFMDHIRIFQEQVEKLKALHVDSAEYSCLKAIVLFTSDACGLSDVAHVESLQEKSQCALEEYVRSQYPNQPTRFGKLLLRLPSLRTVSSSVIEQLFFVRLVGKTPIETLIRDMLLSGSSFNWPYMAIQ

Regarding `O=c1c(OC2OC(CO)C(O)C(O)C2OC2OC(CO)C(O)C(O)C2O)c(-c2ccc(O)cc2)oc2cc(O)cc(O)c12` (stereo unspecified), the IC50 is 20.9 µM (inactive) in [1], 83.3 µM (inactive) in experiment [2] and 38.8 µM (inactive) in experiment [3].
On to `Cc1nnsc1NC(=O)OCc1ccc(C(C)(C)C)cc1`, for which the IC50 in [4] was 10.4 µM (inactive).
In the case of `Cc1ccc2nc(-c3ccc4c(c3)OCCO4)cn2c1`, the AC50 in experiment [5] was 1.27 µM (active); in experiment [7] it was 2.56 µM (active); in experiment [8] it was 2.18 µM (active); in [9], 0.366 µM (active); in experiment [10], 0.527 µM (active); in experiment [11], 2.21 µM (active). Further, the IC50 in experiment [6] is > 80 µM (inactive).
For the compound `Cc1ccc(NS(=O)(=O)c2cc(NC(=O)c3ccc4c(c3)NC(=O)CS4)ccc2Cl)c(C)c1`, the EC50 was 6.38 µM (active) in the experiment with HEK293 [12] and 14.3 µM (active) in experiment [15]. The IC50 in the experiment on HEK293 [13] was 6.3 µM (active); in the experiment with HEK293 [14], 11.5 µM (active); in the experiment on HEK293 [16], 7.17 µM (inactive); with HEK293 [17], > 20 µM (inactive); in experiment [18], 19.5 µM (active); in experiment [19], 48.8 µM (active).
As to `COc1ccccc1NC(=O)c1cn(C)c(=O)c2cc(OC)c(OC)cc12`, the IC50 in experiment [20] is 48.1 µM (active); in experiment [21] it was 10.2 µM (active).
